Experimental data from US20250388604A1, “Compounds and Their Use as PDE4 Activators” (Mironid Limited, priority 2022, published 2025).

Tested on: m-IMCD3 cells
Assay: Inhibition of PGE2-stimulated in vitro cyst formation in m-IMCD3 cells
Assay type: cell-based, mouse
Conditions: Mus musculus, mIMCD3, 144 h, 10 μM; mean cyst area, 100% for (DMSO + PGE2) and 0% for DMSO control; 6 days of culture; read-out: % Cyst area after incubation with 10 μM test compound
Experimental: HEK 293 and MDCK cells (Public Health England, Cell Culture Collections) were maintained in Dulbecco's Modified Eagle's Medium (DMEM) supplemented with 10% (v/v) fetal bovine serum (FBS) (Seralab), 2 mM L-glutamine and 100 U/mL penicillin streptomycin cocktail (ThermoFisher); termed complete media. Clonal HEK 293 cell lines were maintained in complete media supplemented with 0.6 mg/ml G418 (Enzo Life Sciences). Mouse inner medullary collecting duct (m-IMCD3) cells [American Type Culture Collection (ATCC)] were maintained in media consisting of DMEM/Hams F-12 50/50 Mix (DMEM F12; Corning) supplemented with penicillin streptomycin cocktail (100 U/mL) and FBS (10% v/v) (DMEM F12-10% FBS).
The mouse Inner Medullary Collecting Duct cell line (m-IMCD3) spontaneously forms cystic spheroids in 3D culture with a Type 1 collagen/Matrigel extracellular matrix. This process can be stimulated with agents which raise intracellular cAMP and is used as an in vitro model for the formation of cystic structures in the kidneys of patients with ADPKD.
Rat Collagen I (Fisher Scientific) is prepared on ice by neutralising with 1M NaOH and diluting with a 2× volume of DMEM/F12+10% FBS. This is mixed 1:1.1 with ice cold Matrigel (Corning) for coating plates (coating mix), and 1:0.93 with Matrigel for cell plating (plating mix).
The assay is conducted in the wells of a 96-well plate culture dish using a total volume of 130 μL of collagen/Matrigel/DMEM F12-10% FBS suspension in growth media for each matrix plug per individual well. Initially, 30 μL of collagen/Matrigel/DMEM F12-10% FBS (coating mix) is added into the well of a 96 well plate and the collagen is set to a gel by incubating at 37° C. for at least 15 minutes. A second layer of 100 μL collagen/Matrigel suspension (plating mix) containing m-IMCD3 cells (2.75×10^6 m-IMCD3 cells per 96-well plate) is layered over the coating mix and the collagen/Matrigel/cell mix again set to a gel by incubating at 37° C. Cell cultures are maintained at 37° C. in an atmosphere of 5% CO2, 95% air.
Between 18 and 24 h after plating, test compound(s) as DMSO stock solutions [0.1% (v/v) final DMSO concentration] and PGE2 (100 nM final concentration) in DMEM F12-10% FBS are added in quadruplicate wells per condition. Media, together with the test compound and PGE2 are replenished after 2 or 3 days. After 6 days of culture z stack images of the wells are captured using the Nikon Eclipse Ti2-E microscope. Nikon General Analysis software is used to measure the following parameters in each well: the mean cyst area, the number of cysts, and the total cyst area.
PDE4 long form activators inhibited in vitro cyst formation in m-IMCD3 cells. Data are shown in Table 4 as mean cyst area (%), compared to 100% for (DMSO+PGE2) and 0% for DMSO control.

Structure (SMILES) | activity at 10 µM
CC1(C)CCCC1C(=O)N1CCc2nc(N3C4CCC3CNC4)sc2C1 (stereo not drawn) [Example 37, (2-(3,8-diazabicyclo[3.2.1]octan-8-yl)-6,7-dihydrothiazolo[5,4-c]pyridin-5(4H)-yl)(2,2-dimethylcyclopentyl)methanone] | -2%
CC1(C)CCC(C(=O)N2CCc3nc(N4C5CCC4CNC5)sc3C2)C1 (stereo not drawn) [Example 38, (2-(3,8-diazabicyclo[3.2.1]octan-8-yl)-6,7-dihydrothiazolo[5,4-c]pyridin-5(4H)-yl)(3,3-dimethylcyclopentyl)methanone] | 8%
CC(C)NC(=O)N1CCc2nc(N3C4CCC3CNC4)sc2C1 [Example 51, 2-(3,8-diazabicyclo[3.2.1]octan-8-yl)-N-isopropyl-6,7-dihydrothiazolo[5,4-c]pyridine-5(4H)-carboxamide] | 9%
O=C(NC1CCCCC1)N1CCc2nc(N3C4CCC3CNC4)sc2C1 [Example 52] | -6%
O=C(NCc1ccc(F)cc1)N1CCc2nc(N3C4CCC3CNC4)sc2C1 [Example 55, 2-(3,8-diazabicyclo[3.2.1]octan-8-yl)-N-(4-fluorobenzyl)-6,7-dihydrothiazolo[5,4-c]pyridine-5(4H)-carboxamide] | 0%
O=C(NCc1ccc(C(F)(F)F)cc1)N1CCc2nc(N3C4CCC3CNC4)sc2C1 [Example 56, 2-(3,8-diazabicyclo[3.2.1]octan-8-yl)-N-(4-(trifluoromethyl)benzyl)-6,7-dihydrothiazolo[5,4-c]pyridine-5(4H)-carboxamide] | -6%
O=C(Nc1ccccc1)N1CCc2nc(N3C4CCC3CNC4)sc2C1 [Example 57, 2-(3,8-diazabicyclo[3.2.1]octan-8-yl)-N-phenyl-6,7-dihydrothiazolo[5,4-c]pyridine-5(4H)-carboxamide] | -3%
O=C(NC1CCC(F)(F)CC1)N1CCc2nc(N3C4CCC3CNC4)sc2C1 [Example 58, 2-(3,8-diazabicyclo[3.2.1]octan-8-yl)-N-(4,4-difluorocyclohexyl)-6,7-dihydrothiazolo[5,4-c]pyridine-5(4H)-carboxamide] | -3%
O=C(N1CCCC1)N1CCc2nc(N3C4CCC3CNC4)sc2C1 [Example 60, (2-(3,8-diazabicyclo[3.2.1]octan-8-yl)-6,7-dihydrothiazolo[5,4-c]pyridin-5(4H)-yl)(pyrrolidin-1-yl)methanone] | 2%
CN(C(=O)N1CCc2nc(N3C4CCC3CNC4)sc2C1)C1CCCC1 [Example 62, 2-(3,8-diazabicyclo[3.2.1]octan-8-yl)-N-cyclopentyl-N-methyl-6,7-dihydrothiazolo[5,4-c]pyridine-5(4H)-carboxamide] | 1%
CC(C)(C)C(=O)N1CCc2nc(N3C4CCC3CNC4)sc2C1 [Example 65, 1-(2-(3,8-diazabicyclo[3.2.1]octan-8-yl)-6,7-dihydrothiazolo[5,4-c]pyridin-5(4H)-yl)-2,2-dimethylpropan-1-one] | -2%
O=C(CC1CCC(F)(F)CC1)N1Cc2nc(N3C4CCC3CNC4)sc2C1 [Example 67, 1-(2-(3,8-diazabicyclo[3.2.1]octan-8-yl)-4,6-dihydro-5H-pyrrolo[3,4-d]thiazol-5-yl)-2-(4,4-difluorocyclohexyl)ethan-1-one] | -4%
O=C(NC1CCC(F)(F)CC1)N1CCn2nc(N3C4CCC3CNC4)cc2C1 [Example 70, 2-(3,8-diazabicyclo[3.2.1]octan-8-yl)-N-(4,4-difluorocyclohexyl)-6,7-dihydropyrazolo[1,5-a]pyrazine-5(4H)-carboxamide] | 7%
O=C(CC1CCC(F)(F)CC1)N1CCn2nc(N3C4CCC3CNC4)cc2C1 [Example 71, 1-(2-(3,8-diazabicyclo[3.2.1]octan-8-yl)-6,7-dihydropyrazolo[1,5-a]pyrazin-5(4H)-yl)-2-(4,4-difluorocyclohexyl)ethan-1-one] | -3%
O=C(COc1ccc(F)cc1)N1CCn2nc(N3C4CCC3CNC4)cc2C1 [Example 72, 1-(2-(3,8-diazabicyclo[3.2.1]octan-8-yl)-6,7-dihydropyrazolo[1,5-a]pyrazin-5(4H)-yl)-2-(4-fluorophenoxy)ethan-1-one] | -3%
O=C(COc1ccnc(F)c1)N1CCc2nc(N3C4CCC3CNC4)sc2C1 [Example 73, 1-(2-(3,8-diazabicyclo[3.2.1]octan-8-yl)-6,7-dihydrothiazolo[5,4-c]pyridin-5(4H)-yl)-2-((2-fluoropyridin-4-yl)oxy)ethan-1-one] | 3%
CN1CC2CCC(C1)N2c1nc2c(s1)CN(C(=O)CC1CCCC1)CC2 [Example 75, 2-cyclopentyl-1-(2-(3-methyl-3,8-diazabicyclo[3.2.1]octan-8-yl)-6,7-dihydrothiazolo[5,4-c]pyridin-5(4H)-yl)ethan-1-one] | -4%
CN1CC2CCC(C1)N2c1nc2c(s1)CN(C(=O)NC1CCC(F)(F)CC1)CC2 [Example 77, N-(4,4-difluorocyclohexyl)-2-(3-methyl-3,8-diazabicyclo[3.2.1]octan-8-yl)-6,7-dihydrothiazolo[5,4-c]pyridine-5(4H)-carboxamide] | 1%
CN1CC2CCC(C1)N2c1nc2c(s1)CN(C(=O)COc1ccnc(F)c1)CC2 [Example 79, 2-((2-fluoropyridin-4-yl)oxy)-1-(2-(3-methyl-3,8-diazabicyclo[3.2.1]octan-8-yl)-6,7-dihydrothiazolo[5,4-c]pyridin-5(4H)-yl)ethan-1-one] | -2%
CN1CC2CCC(C1)N2c1nc2c(s1)CN(C(=O)NC1CCCC1)C2 [Example 82, N-cyclopentyl-2-(3-methyl-3,8-diazabicyclo[3.2.1]octan-8-yl)-4,6-dihydro-5H-pyrrolo[3,4-d]thiazole-5-carboxamide] | 2%
CN1CC2CCC(C1)N2c1nc2c(s1)CN(C(=O)CC1CCCC1)C2 [Example 83, 2-cyclopentyl-1-(2-(3-methyl-3,8-diazabicyclo[3.2.1]octan-8-yl)-4,6-dihydro-5H-pyrrolo[3,4-d]thiazol-5-yl)ethan-1-one] | 4%
CN1CC2CCC(C1)N2c1nc2c(s1)CN(C(=O)CC1CCC(F)(F)CC1)C2 [Example 84, 2-(4,4-difluorocyclohexyl)-1-(2-(3-methyl-3,8-diazabicyclo[3.2.1]octan-8-yl)-4,6-dihydro-5H-pyrrolo[3,4-d]thiazol-5-yl)ethan-1-one] | 1%
CN1CC2CCC(C1)N2c1cc2n(n1)CCN(C(=O)NC1CCC(F)(F)CC1)C2 [Example 85, N-(4,4-difluorocyclohexyl)-2-(3-methyl-3,8-diazabicyclo[3.2.1]octan-8-yl)-6,7-dihydropyrazolo[1,5-a]pyrazine-5(4H)-carboxamide] | -2%
CN1CC2CCC(C1)N2c1cc2n(n1)CCN(C(=O)CC1CCC(F)(F)CC1)C2 [Example 86, 2-(4,4-difluorocyclohexyl)-1-(2-(3-methyl-3,8-diazabicyclo[3.2.1]octan-8-yl)-6,7-dihydropyrazolo[1,5-a]pyrazin-5(4H)-yl)ethan-1-one] | -1%
O=C(CC1CCC(F)(F)CC1)N1CCn2nc(N3C4CCC3CNC4)nc2C1 [Example 97, 1-(2-(3,8-diazabicyclo[3.2.1]octan-8-yl)-5,6-dihydro-[1,2,4]triazolo[1,5-a]pyrazin-7 (8H)-yl)-2-(4,4-difluorocyclohexyl)ethan-1-one] | 6%
CC1(C)CN(C(=O)CC2CCC(F)(F)CC2)Cc2sc(N3C4CCC3CNC4)nc21 [Example 98, 1-(2-(3,8-diazabicyclo[3.2.1]octan-8-yl)-7,7-dimethyl-6,7-dihydrothiazolo[5,4-c]pyridin-5(4H)-yl)-2-(4,4-difluorocyclohexyl)ethan-1-one] | 3%
CC1(C)CN(C(=O)CC2CCC(F)(F)CC2)Cc2sc(N3CCNCC3)nc21 [Example 100, 2-(4,4-difluorocyclohexyl)-1-(7,7-dimethyl-2-(piperazin-1-yl)-6,7-dihydrothiazolo[5,4-c]pyridin-5(4H)-yl)ethan-1-one] | -1%
